Reference: PMC11219871, “Epigenetic-based differentiation therapy for Acute Myeloid Leukemia” (Nature Communications, 2024)
Values joined by “and” are separate entries in the source; they are usually repeats but may differ in a detail not shown here. Equal entries are not always repeated.

What was measured:
[1] = system: HL-60; test: q-RT-PCR of MYC, CDKN2A, CDKN1A, GATA2, TAL1, CEBPA, SPI1; format: cell-based, human
Experimental: (§1) RNA was extracted with TRIzol Reagent (Invitrogen) according to the manufacturer’s instructions. First, cDNA was synthesized from 1 µg of total RNA using the PrimeScript RT reagent Kit (Perfect Real Time) (Cat No RR037A, TaKaRa) following the manufacturer’s instructions. The quality of cDNA was checked by a multiplex PCR that amplifies PBGD, ABL, BCR and β2-MG genes. […] The following program conditions were used for the q-PCR: 50 °C for 2 min, 95 °C for 60 s following by 45 cycles at 95 °C for 15 s and 60 °C for 60 s; melting program, one cycle at 95 °C for 15 s, 40 °C for 60 s, and 95 °C for 15 s. The relative expression of each gene was quantified by the […] method using the gene GUS as an endogenous control. The sequence of primers used can be found in Supplementary Table 10.

[2] = system: ML-2; test: as above; format: cell-based, human
Experimental: as §1

[3] = system: MOLM-13; test: as above; format: cell-based, human
Experimental: as §1

[4] = biological target: T1, cytochrome P450 1A2 (Homo sapiens, UniProt P05177); test: CYP inhibition in human liver microsomes; format: in vitro ADME; settings: 10 µM
T1 construct: Corning Cat # 452117); tissue Corning 452117; host or cells: human liver microsomes
T1 sequence (P05177 whole entry): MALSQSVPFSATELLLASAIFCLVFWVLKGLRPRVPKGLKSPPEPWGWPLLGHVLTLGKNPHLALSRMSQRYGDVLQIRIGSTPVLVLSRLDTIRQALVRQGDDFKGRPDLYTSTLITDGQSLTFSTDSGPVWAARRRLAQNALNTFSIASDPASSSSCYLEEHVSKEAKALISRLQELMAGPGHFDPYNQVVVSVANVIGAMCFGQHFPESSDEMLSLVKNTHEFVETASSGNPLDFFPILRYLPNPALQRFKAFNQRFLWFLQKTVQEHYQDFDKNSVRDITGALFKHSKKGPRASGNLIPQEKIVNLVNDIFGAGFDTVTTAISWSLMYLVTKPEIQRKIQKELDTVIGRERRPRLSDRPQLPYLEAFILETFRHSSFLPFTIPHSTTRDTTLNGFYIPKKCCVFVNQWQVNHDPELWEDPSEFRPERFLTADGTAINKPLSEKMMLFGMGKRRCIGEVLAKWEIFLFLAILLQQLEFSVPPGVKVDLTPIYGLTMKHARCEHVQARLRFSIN
Experimental: This study was conducted at Wuxi (http://www.wuxi.com/). The inhibitory effects of CM-444 and CM-1758 on five human cytochrome P450s (1A2, 2C9, 2C19, 2D6 and 3A4) were evaluated in human liver microsomes. Test compounds (10 µM final concentration) or control compounds (α-naphthoflavone, sulfaphenazole, (+)-N-3-benzylnirvanol, quinidine, ketoconazole; 3-µM final concentration), and the corresponding substrates for each P450 isoform (1A2: phenacetin, 10-µM final concentration; 2C9: diclofenac, 5-µM final concentration; 2C19: S-mephenytoin, 30-µM final concentration, 2D6: dextromethorphan, 5-µM final concentration; 3A4: midazolam, 2-µM final concentration) were incubated with human liver microsomes (0.2-mg/mL final concentration; Corning Cat # 452117) and NADPH cofactor (1-mM final concentration, Chem-impex Cat # 00616) for 10 min at 37 °C. The reaction was terminated by adding 400 µL of cold stop solution (200 ng/mL tolbutamide and labetalol in acetonitrile), and the samples were centrifuged at 1520 g for 20 min. Next, 200-μL aliquots of supernatants were diluted with 100 μL of ultra-pure water and shaken for 10 min. The samples were analyzed by LC-MS/MS using an analyte/internal standard peak area ratio. Test compounds and positive controls were tested in duplicate. The percentage of inhibition was calculated as the ratio of substrate metabolite detected in treated and non-treated wells.

[5] = HL-60, replicates 1-3 (Figure 2E)
[6] = HL-60, replicates 1-3 (Figure 2G)
[7] = HL-60 treated daily for 48 h, replicates (Fig 6F)
[8] = ML-2, replicates 1-3 (Figure 2E)
[9] = ML-2, replicates 1-3 (Figure 2G)
[10] = ML-2 treated daily for 48 h, replicates (Fig 6G)
[11] = MOLM-13, daily treatment for 48 h, replicates 1-3

## COc1cc2nc(-c3ccc(C)o3)cc(NCC3CCN(c4ncc(C(=O)NO)cn4)CC3)c2cc1OC [CM-444, 2-[4-[[[6,7-dimethoxy-2-(5-methyl-2-furyl)-4-quinolyl]amino]methyl]-1-piperidyl]pyrimidine-5-carbohydroxamic acid]
[1]; [5]
  q-PCR of CDKN1A (p21), log10 (2-ΔΔCt): 1.981 and 1.653 and 1.57
  q-PCR of CDKN2A (p16), log10 (2-ΔΔCt): 0.3125 and 0.3822 and 0.4047
  q-PCR of MYC, log10 (2-ΔΔCt): -0.5893 and -0.4826 and -0.451
[1]; [6]
  q-PCR of CEBPA, log10 (2-ΔΔCt): 0.7569 and 0.6258 and 0.5709
  q-PCR of GATA2, log10 (2-ΔΔCt): 1.013 and 0.858 and 0.8451
  q-PCR of SPI1 (PU.1), log10 (2-ΔΔCt): 0.7127 and 0.6825 and 0.8316
  q-PCR of TAL1 (SCL), log10 (2-ΔΔCt): 0.1258 and 0.2369 and 0.3382
[1]; [7]
  q-PCR of CEBPA: 1.462 log10 (2-ΔΔCt) and 1.7754 log10 (2-ΔΔCt) and 1.81 log10 (2-ΔΔCt)
  q-PCR of GATA2: 0.8764 log10 (2-ΔΔCt) and 0.8459 log10 (2-ΔΔCt) and 0.7844 log10 (2-ΔΔCt)
  q-PCR of MYC: -0.6475 log10 (2-ΔΔCt) and -0.7277 log10 (2-ΔΔCt) and -0.6044 log10 (2-ΔΔCt)
  q-PCR of SPI1: 0.6661 log10 (2-ΔΔCt) and 0.715 log10 (2-ΔΔCt) and 0.8576 log10 (2-ΔΔCt)
  q-PCR of TAL1: 2.167 log10 (2-ΔΔCt) and 1.539 log10 (2-ΔΔCt) and 2.185 log10 (2-ΔΔCt)
[2]; [8]
  q-PCR of CDKN1A (p21), log10 (2-ΔΔCt): 1.227 and 1.353 and 1.599
  q-PCR of CDKN2A (p16), log10 (2-ΔΔCt): 0.6515 and 0.5026 and 0.5454
  q-PCR of MYC, log10 (2-ΔΔCt): -1.502 and -1.26 and -1.4
[2]; [9]
  q-PCR of CEBPA, log10 (2-ΔΔCt): 0.9236 and 1.002 and 0.879
  q-PCR of GATA2, log10 (2-ΔΔCt): 2.413 and 2.636 and 2.689
  q-PCR of SPI1 (PU.1), log10 (2-ΔΔCt): 0.5237 and 0.6236 and 0.7619
  q-PCR of TAL1 (SCL), log10 (2-ΔΔCt): 0.9258 and 1.226 and 0.9453
[2]; [10]
  q-PCR of CEBPA: 1.15 log10 (2-ΔΔCt) and 1.105 log10 (2-ΔΔCt) and 1.112 log10 (2-ΔΔCt)
  q-PCR of GATA2: 1.841 log10 (2-ΔΔCt) and 1.852 log10 (2-ΔΔCt) and 1.8708 log10 (2-ΔΔCt)
  q-PCR of MYC: -0.8138 log10 (2-ΔΔCt) and -0.7958 log10 (2-ΔΔCt) and -0.772 log10 (2-ΔΔCt)
  q-PCR of SPI1: 0.6179 log10 (2-ΔΔCt) and 0.715 log10 (2-ΔΔCt) and 0.7068 log10 (2-ΔΔCt)
  q-PCR of TAL1: 0.9832 log10 (2-ΔΔCt) and 1.433 log10 (2-ΔΔCt) and 0.7663 log10 (2-ΔΔCt)
[3]; [11]
  q-PCR of CEBPA, log10 (2-ΔΔCt): 2.5418 and 2.486 and 2.37
  q-PCR of GATA2, log10 (2-ΔΔCt): 1.451 and 1.32 and 1.2001
  q-PCR of MYC, log10 (2-ΔΔCt): -0.5166 and -0.6125 and -0.4922
  q-PCR of SPI1, log10 (2-ΔΔCt): 0.3255 and 0.2581 and 0.1964
  q-PCR of TAL1, log10 (2-ΔΔCt): 1.582 and 1.681 and 1.836
[3]; MOLM-13, q-PCR
  CDKN1A log10 (2-ΔΔCt): 0.9026 and 0.7158 and 0.9504
  CDKN2A log10 (2-ΔΔCt): 0.7237 and 0.7926 and 0.8396
  CEBPA log10 (2-ΔΔCt): 1.789 and 1.635 and 1.622
  GATA2 log10 (2-ΔΔCt): 0.9826 and 1.026 and 1.05
  MYC log10 (2-ΔΔCt): -0.5821 and -0.5713 and -0.4455
  SPI1 log10 (2-ΔΔCt): 0.02369 and 0.04258 and 0.1281
  TAL1 log10 (2-ΔΔCt): 1.526 and 1.626 and 1.825
[4]
  P450S Inhibition (1A2): 58.8%
